Test results published in patent US20140057940A1, “Methods for Treating or Preventing Cardiac and Neurological Disorders Using Chemokine Receptor Antagonists” (priority 2011, published 2014).

How the values were obtained:
[1] = test system: isolated macaque cardiomyocytes; assay: Sarcomeric contraction of field-stimulated (1 Hz) isolated single cardiomyocytes; assay type: cell-based
Text: In addition to SIV, the chemokines CCL3, CCL4, and CCL5 can also bind to CCR5 and initiate signaling pathways. In order to evaluate the ability of CCL5 to alter sarcomeric contraction in a CCR5-dependent manner, isolated single cardiomyocytes were field stimulated (1 Hz) and sarcomeric contraction measured over time.

[2] = test system: CD68+ macrophages and CD163 expression in the myocardium; assay: Immunostaining for macrophage markers CD68 and CD163 in myocardium; assay type: in vivo, rhesus macaques; conditions: SIV-infected macaques, FIG. 8
Text: To characterize the mononuclear cell populations in myocardium, sections were immunostained for the macrophage marker CD68 and measured by quantitative image analysis. In uninfected animals, CD68+ immunostaining localized to single, round cells located diffusely throughout the myocardium with increased numbers around vessels, consistent with resident macrophages. In SIV-infected animals, CD68+macrophages in perivascular areas were more prominent, likely reflecting recruited, infiltrating macrophages. […] Myocardium was also immunostained for the macrophage marker CD 163. […] In control animals, spindle shaped CD163+ cells were present diffusely throughout the myocardium occasionally forming small clusters. In SIV-infected macaques, cells were similarly spindle shaped to stellate with more extensive cellular processes. […] Myocardial CD163 immunostaining was highly correlated with CD68 immunostaining.

[3] = test system: SIV-infected macaques; conditions: echocardiography, FIG. 7
[4] = test system: SIV/17E-Fr and SIV/DeltaB670; assay: SIV-infected rhesus macaques: survival, CD4+ cell count and viral loads; assay type: in vivo
Text: Twenty-two adult rhesus macaques (mean age=11 years) pre-screened for SIV, STLV-1, and simian type D retrovirus were inoculated intravenously with the macrophagetropic clone SIV/17E-Fr and the immunosuppressive swarm SIV/DeltaB670 (FIG. 3). Age-matched adult rhesus macaques (mean age=11 years) were inoculated with media alone as controls. […] At euthanasia, all animals were perfused with saline to remove blood from the systemic vasculature. Hearts were immediately harvested and samples were immersion fixed in Streck Tissue Fixative (Streck, Omaha, Nebr.) or flash frozen.

[5] = test system: SIV/17E-Fr and SIV/DeltaB670; assay: SIV RNA levels in plasma, CSF, spleen and brain by qRT-PCR; assay type: in vivo, rhesus macaques; conditions: 200 mg PO BID from day 24 to day 180 post-inoculation
Procedure: (§1) To determine whether the CCR5 antagonist maraviroc altered CNS disease progression, SIV-infected animals from were treated with maraviroc and CNS outcomes were compared with untreated SIV-infected animals. Specifically, six rhesus macaques were inoculated with SIV/17E-Fr and SIV/DeltaB670 and treated with maraviroc (200 mg PO BID) beginning 24 days post-inoculation until the study endpoint 180 days postinoculation, 22 SIV-infected animals served as untreated, SIV-infected controls, and 8 additional animals served as untreated, uninfected controls (Example 2). Maraviroc levels in plasma and CSF were measured using liquid chromatography tandem mass spectrometry. SIV RNA levels in plasma, CSF, spleen, and brain were measured by qRT-PCR. Immunostaining for CD68 and amyloid precursor protein (APP) in the brain was measured by digital image analysis. Group comparisons were performed by the Mann-Whitney test.

[6] = test system: isolated macaque cardiomyocytes; assay: Calcium transient amplitude in isolated cardiomyocytes; assay type: cell-based; conditions: FIG. 1E, ANOVA P=0.72
[7] = test system: CD68 and amyloid precursor protein (APP) in the brain; assay: Immunostaining for CD68 and amyloid precursor protein (APP) in the brain; assay type: in vivo, rhesus macaques; conditions: 200 mg PO BID
Procedure: as §1

[8] = SIV-infected macaques, 40 mg/kg orally twice per day
[9] = versus untreated SIV-infected macaques

With “4,4-difluoro-N-{(1S)-3-[exo-3-(3-isopropyl-5-methyl-4H-1,2,4-triazol-4-yl)-8-azabicyclo[3.2.1]oct-8-yl]-1-phenylpropyl}cyclohexanecarboxamide [maraviroc]” the “effect on the induced reduction in sarcomeric contraction” value ([1]; addition after CCL5, FIG. 1A-1C) was “reversed”, the “difference in shortening between baseline and treatment” value ([1]; after CCL5, P=0.72) was “no significant difference” and the “effect on the CCL5-induced decrease in sarcomeric shortening” value ([1]; subsequent addition in the same cells, FIG. 1D) was “modulated the CCL5 effect towards basal contraction”. The “CD68+ macrophage level in myocardium” value [2] was “do not change”, the “CD163 expression by macrophages in myocardium” value [2] was “lowered to levels present in uninfected and untreated subjects” and the “mitral inflow parameters consistent with diastolic dysfunction with impaired relaxation” value [3] was “significantly ameliorated”. The “outcomes (CSF, plasma, spleen, heart viral load) versus rapid (RP) and long term progression (LTP) groups” value ([4]; FIG. 6, LTP over 180 days post-SIV inoculation) was “improves outcomes in both RP and LTP groups”, the “CD4+ cell counts” value [4, 8] was “increased” and the “survival relative to the untreated cohort” value [4, 8] was “significantly increased”. For the same molecule, the “viral load in CSF” value [4, 8] was “reduced”, the “viral load in heart” value [4, 8] was “reduced” and the “viral load in plasma” value [4, 8] was “reduced”. The “viral load in spleen” value [4, 8] was “reduced”, the “SIV RNA levels in spleen” value [5] was “reduced” and the plasma viral load [5] was “reduced”. The “SIV RNA levels in CSF” value [5, 9] was “significantly lower”, the “SIV RNA levels in brain” value [5, 9] was “significantly lower” and the calcium transient amplitude ([6]; RANTES+MVC treatment) was “not altered”. For the same molecule, the “CNS macrophage activation represented by CD68 immunostaining” value ([7]; P<0.001, FIG. 10) was “lowered” and the “axonal APP immunostaining” value ([7]; P=0.003, FIG. 10) was “lowered”.

B1: CCL5: specific chemokine ligand that can bind to CCR5 and initiate signaling pathways (protein, UniProt P13501 24-91, looked up)
C-C motif chemokine 5: SPYSSDTTPCCFAYIARPLPRAHIKEYFYTSGKCSNPAVVFVTRKNRQVCANPEKKWVREYINSLEMS
With B1 the sarcomeric shortening ([1]; 14 VCM, mean of 20 contraction cycles/cell at steady state, FIG. 1D, p<0.001) was “significantly decreased”, the “mean % decline in contraction from baseline contraction length” value ([1]; isolated macaque cardiomyocytes, FIG. 1C, P=0.009) was 22% and the calcium transient amplitude ([6]; RANTES treatment) was “not altered”.
